# Values of other authors in US20090226465A1, “MACROCYCLIC DEPSIPEPTIDE ANTIBODY-DRUG CONJUGATES AND METHODS” (priority 2005, published 2009).
# pIC50: −log10 of the molar value. *1 amine or outer side, *2 acyl side, *3 side chain or, on linkers, in order; H or OH if unused. Where a SMILES comes first, the peptide text is derived from it. Bridges are numbered along the chain shown (N, C = ends). [ ]: non-standard residue; d: D form. The star is where a group is joined. X1 = CC[C@H](C)[C@@H](N[*:1])[C@@H](O)CC(=O)O[C@H](C(=O)[C@H](C)C(=O)[*:2])C(C)C; NMeY = CN[C@@H](Cc1ccc(O)cc1)C(=O)O; dNMeL = CN[C@H](CC(C)C)C(=O)O; Pyruvoyl = CC(=O)C(=O)*
# Columns and labels:
# [1] = test system: panel of solid tumor cell lines; details: read-out: in vitro IC50
smiles,measurement,setting,value
CC[C@H](C)[C@H]1NC(=O)[C@@H](NC(=O)[C@@H](CC(C)C)N(C)C(=O)[C@@H]2CCCN2C(=O)C(C)=O)[C@@H](C)OC(=O)[C@H](Cc2ccc(OC)cc2)N(C)C(=O)[C@@H]2CCCN2C(=O)[C@H](CC(C)C)NC(=O)[C@@H](C)C(=O)[C@H](C(C)C)OC(=O)C[C@@H]1O [Aplidin] (Pyruvoyl-P[dNMeL]T[X1]LP[NMeY](Me); ester 3-C),pIC50,[1],7.00 to 9.00
same,half life in plasma,,4 to 7 h
